The results in this text go back to patent publication EP1566447A1, “Glimepiride- and insulin-induced glycosylphosphatidylinositol-specific phospholipase C regulation” (priority 2004, dated 2005).

Entries after “also recorded” stand apart in the source; their conditions may differ.

The nature of data set [1]: stability of the compound in solvents and as a solid. The class given is physicochemical. As to the method: As starting material, racemic 1,4,5,6-tetra-O-benzyl-myo-inositol (thereinafter: compound 1) was prepared by a procedure as disclosed in "Zhai, H.-X. et al. (1995) Tetrahedron Lett. 36: 7403-7406". Compound 1 was then phosphorylated with dodecylphosphonic dichloride in the presence of triethylamine and dimethyl-aminopyridine to yield tetra-O-benzyl-myo-inositol-1,2-cyclo-dodecylphosphonic acid (thereinafter: compound 2). By catalytic hydrogenation with 10% Pd on charcoal compound 2 was debenzylated to myo-inositol-1,2-cyclo-dodecylphosphonic acid (thereinafter: compound 3 or GPI-2350) as a mixture of diastereomeres. For synthesis of compound 2 (Fig. 1), 1 g (1.8 mmol) of compound 1 was dissolved in 60 ml of methylene chloride and 1 ml of triethylamine, 200 mg dimethyl-aminopyridine and 1 g ([…]) of dodecylphosphonic dichloride were added. This reaction solution was allowed to stand (45 min, room temperature). Then 50 ml of ethyl acetate were added and the mixture was filtrated on silical gel. After concentration of the solvent, the residue was purified by flash chromatography (n-heptane/ethyl acetate, 1/1, by vol.). Yield of compound 2: 580 mg (43 %) of a white amorphous solid. TLC: n-heptane/ethyl acetate (1/1, by vol.), Rf = 0.7. MS: (M + Li)^+ = 761.4, calculated […], M = 754.9. […] MS: (M + Li)^+ = 401.2, calculated C18H35O7P, M = 394.4.

For a further data set, the system named is caveolin-1. The data set can be described thus: dissociation of signaling proteins from caveolin (caveolin-1 immunoprecipitates). In kind it is cell-based, rat. As to the method: Solubilized DIGs (see above, 5-20 µg protein) were precleared by incubation with protein A/G-Sepharose and subsequent centrifugation (10,000xg, 5 min). The supernatant was incubated with anti-caveolin-1 antibodies (1:1000) preadsorbed on protein A/G-Sepharose in 1 ml of 10 mM Tris/HCl (pH 7.4), 150 mM NaCl, 1 % TX-100 for 1 h at 4°C. The immune complexes were washed twice with the same buffer and then twice with buffer lacking TX-1 00 and finally subjected to SDS-PAGE performed in the absence of β-mercaptoethanol. The recovery of immunoprecipitated caveolin was normalized by homologous immunoblotting with anti-caveolin antibodies of the same blot following stripping of the membrane.
Polypeptides separated by SDS-PAGE were transferred to polyvinylidene difluoride membranes using the semidry procedure as described in "Müller, G. et al., (2001) Mol. Cell. Biol. 21: 4553-4567". Washed membranes were incubated anti-caveolin-1 (1:2000), anti-pp59^Lyn (1:1250), anti-aP (1:500), anti-5'-Nuc (1:750) and anti-IRS-1 (1:2000) antibodies for 4 h at 15°C. Washed membranes were incubated with horseradish peroxidase-coupled secondary goat anti-mouse (1:2000) or goat anti-rabbit IgG (1:4000) antibodies. Labeled proteins were visualized by enhanced chemiluminescence.
Of signaling proteins from caveolin. […]

Another data set relates to rat adipocytes. The data set can be described thus: isoproterenol-induced lipolysis measured as release of NBD-FA. The class given is cell-based. The settings on record: Rattus norvegicus, Adipocyte, given as 'up to', read-out: impairment of insulin inhibition of NBD-FA release. As for the experimental part: Electroporation was performed as described in "Müller, G. et al., (2000) Mol. Cell. Biol. 20: 4708-4723". Lipolysis was determined as release of glycerol or fluorescent NBD-FA from prelabeled and isoproterenol-stimulated adipocytes as described in "Müller, G. et al., (2003) Biochimie 85: 1245-1256". Gce1 was detected by photolabeling of solubilized plasma membranes or hc/IcDIGs (10-50 µg protein) with 8-N3-[^32P]cAMP and subsequent phosphorimaging as described in "Müller, G. et al., (1994) Biochemistry 33: 12149-12159". 5'-Nuc, aP and AChE activities were measured according to "Eliakim, R. et al., (1990) Biochim. Biophys. Acta […]". Protein was determined using the BCA protein determination kit from Pierce (Rockford, IL) and BSA as calibration standard. SDS-PAGE was performed using precast gels (Novex, San Diego, CA; 10 % Bis-Tris resolving gel, morpholinopropanesulfonic acid-SDS running buffer). Lumiimages were evaluated on a Lumilmager using Lumilmager software (Roche Diagnostics). Phosphor- and fluorescence images were processed and quantified using the Storm 860 Phosphorlmager system (Molecular Dynamics, Gelsenkirchen, Germany). Figures were constructed using the Adobe Photoshop software (Adobe Systems, Mountain View, CA). […]

Regarding `CCCCCCCCCCCCP1(=O)O[C@@H]2[C@H](O)[C@@H](O)[C@H](O)[C@@H](O)[C@@H]2O1` (mixture of isomers) [GPI-2350, myo-inositol-1,2-cyclo-dodecylphosphonic acid], the “stability in acidic vs. basic solvents” value in data set [1] is listed as “less stable in acidic than basic solvents”. For the same molecule, in data set [1] (methanol), the stability in methanol result is reported as “for days”. In addition, in the data set on caveolin-1 (50 µM, Fig. 6 Panel A), the “effect on induced dissociation of pp59^Lyn and Gce1 from caveolin” value was “almost complete blockade; also recorded: completely abrogated”. For the same molecule, the concentration for half-maximal inhibition (IC50) (in general, the midpoint of a concentration-inhibition curve) in the data set on caveolin-1 (abrogation of insulin- and glimepiride-induced losses, Fig. 6 Panel B) fell in the range of 5 to 10 µM. Moreover, the inhibition – broadly, the share of the control response that was lost under treatment – at 50 µM in the data set on rat adipocytes was 25 to 30%.
